pKi: −log10 of the molar value.
Tests used:
Rho kinase 1 (ROCK-I) = Rho kinase 1 (ROCK-I) (Homo sapiens, UniProt Q13464); experiment: In vitro Rho kinase inhibitory activity assay (ADP-Glo), Rho kinase 1; type: biochemical; settings: 10 μM ATP, 25° C., expressed as range of activity
Summary of the method: (§1)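 Kinase activity is measured as ADP production (ADP-Glo, luminescence) after 1 hour at 25 °C with 10 μM ATP and 2.5 μM Myelin Basic Protein, following 30 min enzyme–compound preincubation. Buffer is 40 mM Tris pH7.5, 20 mM MgCl2, 0.1 mg/ml BSA, 50 μM DTT.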

Rho kinase 2 (ROCK-II) = Rho kinase 2 (ROCK-II) (Homo sapiens, UniProt O75116); experiment: In vitro Rho kinase inhibitory activity assay (ADP-Glo), Rho kinase 2; type: biochemical; settings: 10 μM ATP, 25° C., expressed as range of activity
Summary of the method: as §1

Rho kinase 2 (ROCK-II), sequence (O75116 whole entry): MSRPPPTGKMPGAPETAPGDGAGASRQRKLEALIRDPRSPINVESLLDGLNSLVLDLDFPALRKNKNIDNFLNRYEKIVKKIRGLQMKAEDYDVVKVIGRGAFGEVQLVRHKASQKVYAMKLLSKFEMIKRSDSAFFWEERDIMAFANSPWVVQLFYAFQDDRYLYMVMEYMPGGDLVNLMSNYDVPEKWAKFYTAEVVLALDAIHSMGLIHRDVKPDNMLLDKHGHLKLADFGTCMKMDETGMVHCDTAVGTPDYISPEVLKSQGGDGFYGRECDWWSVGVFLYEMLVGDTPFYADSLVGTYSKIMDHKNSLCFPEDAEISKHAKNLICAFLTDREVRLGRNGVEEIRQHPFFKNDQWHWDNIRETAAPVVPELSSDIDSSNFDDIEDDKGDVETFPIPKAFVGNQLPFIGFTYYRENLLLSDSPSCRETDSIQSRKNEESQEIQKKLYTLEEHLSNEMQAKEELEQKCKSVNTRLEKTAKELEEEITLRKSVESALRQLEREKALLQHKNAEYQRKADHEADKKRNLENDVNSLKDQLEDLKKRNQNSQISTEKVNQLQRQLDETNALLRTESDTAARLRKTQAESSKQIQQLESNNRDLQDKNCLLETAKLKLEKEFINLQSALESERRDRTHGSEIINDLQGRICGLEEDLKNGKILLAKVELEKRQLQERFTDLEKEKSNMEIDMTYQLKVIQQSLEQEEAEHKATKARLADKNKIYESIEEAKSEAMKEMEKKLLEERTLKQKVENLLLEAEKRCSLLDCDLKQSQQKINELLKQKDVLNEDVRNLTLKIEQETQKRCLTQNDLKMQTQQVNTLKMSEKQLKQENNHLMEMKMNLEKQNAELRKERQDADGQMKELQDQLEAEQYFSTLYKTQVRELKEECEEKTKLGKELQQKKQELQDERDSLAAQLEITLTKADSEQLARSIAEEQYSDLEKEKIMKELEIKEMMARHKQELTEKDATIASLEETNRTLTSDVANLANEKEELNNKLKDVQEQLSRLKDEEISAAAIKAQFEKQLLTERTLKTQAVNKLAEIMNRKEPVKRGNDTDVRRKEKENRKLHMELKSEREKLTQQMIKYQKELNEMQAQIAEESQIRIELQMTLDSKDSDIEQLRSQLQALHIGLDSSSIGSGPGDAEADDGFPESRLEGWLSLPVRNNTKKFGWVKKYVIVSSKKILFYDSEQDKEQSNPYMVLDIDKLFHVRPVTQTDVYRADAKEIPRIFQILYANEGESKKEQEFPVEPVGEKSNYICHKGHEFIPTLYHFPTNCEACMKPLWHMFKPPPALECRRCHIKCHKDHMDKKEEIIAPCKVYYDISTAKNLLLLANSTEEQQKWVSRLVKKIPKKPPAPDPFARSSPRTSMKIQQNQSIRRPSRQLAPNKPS
Rho kinase 1 (ROCK-I), sequence (Q13464 whole entry): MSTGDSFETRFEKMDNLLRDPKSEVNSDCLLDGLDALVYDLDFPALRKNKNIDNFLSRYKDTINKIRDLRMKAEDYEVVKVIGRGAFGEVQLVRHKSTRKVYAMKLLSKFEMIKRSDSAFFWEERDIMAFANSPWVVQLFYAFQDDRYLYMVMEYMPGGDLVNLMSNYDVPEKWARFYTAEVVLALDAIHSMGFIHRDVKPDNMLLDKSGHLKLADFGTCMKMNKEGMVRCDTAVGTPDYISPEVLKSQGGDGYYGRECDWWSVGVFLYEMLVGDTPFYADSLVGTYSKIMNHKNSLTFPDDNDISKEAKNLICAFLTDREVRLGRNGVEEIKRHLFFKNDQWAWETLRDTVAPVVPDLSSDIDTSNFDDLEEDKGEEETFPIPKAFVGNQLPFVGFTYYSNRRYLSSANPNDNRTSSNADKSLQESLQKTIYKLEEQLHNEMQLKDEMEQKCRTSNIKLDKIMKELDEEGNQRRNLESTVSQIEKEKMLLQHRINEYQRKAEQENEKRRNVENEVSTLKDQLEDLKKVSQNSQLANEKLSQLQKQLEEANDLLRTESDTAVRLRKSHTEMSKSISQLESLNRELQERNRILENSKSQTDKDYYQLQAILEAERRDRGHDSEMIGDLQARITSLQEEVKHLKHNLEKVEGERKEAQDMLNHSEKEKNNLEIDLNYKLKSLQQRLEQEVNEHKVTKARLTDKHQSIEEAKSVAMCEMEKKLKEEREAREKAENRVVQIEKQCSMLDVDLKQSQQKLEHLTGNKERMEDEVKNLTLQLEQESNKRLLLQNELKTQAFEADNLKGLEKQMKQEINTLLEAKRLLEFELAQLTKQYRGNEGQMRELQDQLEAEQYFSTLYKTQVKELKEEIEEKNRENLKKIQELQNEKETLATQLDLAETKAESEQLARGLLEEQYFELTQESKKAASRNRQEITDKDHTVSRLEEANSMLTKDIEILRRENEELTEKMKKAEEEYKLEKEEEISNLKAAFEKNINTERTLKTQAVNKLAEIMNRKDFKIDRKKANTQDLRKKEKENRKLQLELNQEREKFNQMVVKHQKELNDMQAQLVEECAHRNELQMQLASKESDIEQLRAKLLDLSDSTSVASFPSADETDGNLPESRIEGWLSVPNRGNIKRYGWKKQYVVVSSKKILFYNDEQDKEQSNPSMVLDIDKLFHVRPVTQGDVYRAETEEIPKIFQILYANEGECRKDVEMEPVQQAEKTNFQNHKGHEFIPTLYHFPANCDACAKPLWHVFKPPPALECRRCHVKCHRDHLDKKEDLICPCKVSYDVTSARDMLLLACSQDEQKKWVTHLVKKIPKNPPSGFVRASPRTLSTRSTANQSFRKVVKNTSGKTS

## CCn1nccc1-c1c[nH]c2nccc(Oc3ccc(C[C@H](N)C(=O)N4CCN(Cc5ccccc5)CC4)cc3)c12 [Example 193, (S)-2-amino-1-(4-benzylpiperazin-1-yl)-3-(4-((3-(1-ethyl-1H-pyrazol-5-yl)-1H-pyrrolo[2,3-b]pyridin-4-yl)oxy)phenyl)propan-1-one]
Rho kinase 1 (ROCK-I)
  pKi: 7.52 to 8.52
Rho kinase 2 (ROCK-II)
  pKi: 7.52 to 8.52

## Cc1c[nH]c2nccc(Oc3ccc(C[C@H](N)C(=O)N(C)CC4CCN(C)CC4)cc3F)c12 [Example 39, (S)-2-amino-3-(3-fluoro-4-((3-methyl-1H-pyrrolo[2,3-b]pyridin-4-yl)oxy)phenyl)-N-methyl-N-((1-methylpiperidin-4-yl)methyl)propanamide]
Rho kinase 1 (ROCK-I)
  pKi: 7.52 to 8.52
Rho kinase 2 (ROCK-II)
  pKi: 7.52 to 8.52

## N[C@@H](Cc1ccc(Oc2ccnc3[nH]cc(-c4ccncc4)c23)cc1)C(=O)N1CCN(Cc2ccccc2)CC1 [Example 192, (S)-2-amino-1-(4-benzylpiperazin-1-yl)-3-(4-((3-(pyridin-4-yl)-1H-pyrrolo[2,3-b]pyridin-4-yl)oxy)phenyl)propan-1-one]
Rho kinase 1 (ROCK-I)
  pKi: > 8.52
Rho kinase 2 (ROCK-II)
  pKi: > 8.52

## Cc1c[nH]c2ncnc(Oc3ccc(C[C@H](N)C(=O)N4CCN(C)CC4)cc3F)c12 [Example 118, (S)-2-amino-3-(3-fluoro-4-((5-methyl-7H-pyrrolo[2,3-d]pyrimidin-4-yl)oxy)phenyl)-1-(4-methylpiperazin-1-yl)propan-1-one]
Rho kinase 1 (ROCK-I)
  pKi: 7.52 to 8.52
Rho kinase 2 (ROCK-II)
  pKi: 7.52 to 8.52

## Cc1c[nH]c2nccc(Oc3ccc(C[C@H](N)C(=O)N4CCN(C(=O)c5nccs5)CC4)cc3F)c12 [Example 177, (S)-2-amino-3-(3-fluoro-4-((3-methyl-1H-pyrrolo[2,3-b]pyridin-4-yl)oxy)phenyl)-1-(4-(thiazole-2-carbonyl)piperazin-1-yl)propan-1-one]
Rho kinase 1 (ROCK-I)
  pKi: > 8.52
Rho kinase 2 (ROCK-II)
  pKi: > 8.52

## Cc1c[nH]c2nccc(Oc3ccc(C[C@H](N)C(=O)N4CCNCC4)cc3F)c12 [Example 152, (S)-2-amino-3-(3-fluoro-4-((3-methyl-1H-pyrrolo[2,3-b]pyridin-4-yl)oxy)phenyl)-1-(piperazin-1-yl)propan-1-one]
Rho kinase 1 (ROCK-I)
  pKi: > 8.52
Rho kinase 2 (ROCK-II)
  pKi: > 8.52

## Cc1c[nH]c2ncnc(Oc3ccc(C[C@H](N)C(=O)NC4CCOCC4)cc3F)c12 [Example 125, (S)-2-amino-3-(3-fluoro-4-((5-methyl-7H-pyrrolo[2,3-d]pyrimidin-4-yl)oxy)phenyl)-N-(tetrahydro-2H-pyran-4-yl)propanamide]
Rho kinase 1 (ROCK-I)
  pKi: 7.52 to 8.52
Rho kinase 2 (ROCK-II)
  pKi: 7.52 to 8.52

## Cc1c[nH]c2nccc(Oc3ccc(CC(N)C(=O)NCCc4ccncc4)cc3F)c12 (centres unmarked) [Example 57, 2-amino-3-(3-fluoro-4-((3-methyl-1H-pyrrolo[2,3-b]pyridin-4-yl)oxy)phenyl)-N-(2-(pyridin-4-yl)ethyl)propanamide]
Rho kinase 1 (ROCK-I)
  pKi: > 8.52
Rho kinase 2 (ROCK-II)
  pKi: > 8.52

## Cc1c[nH]c2nccc(Oc3ccc(C[C@H](N)C(=O)N4CCN(Cc5cnn(C)c5)CC4)cc3F)c12 [Example 163, (S)-2-amino-3-(3-fluoro-4-((3-methyl-1H-pyrrolo[2,3-b]pyridin-4-yl)oxy)phenyl)-1-(4-((1-methyl-1H-pyrazol-4-yl)methyl)piperazin-1-yl)propan-1-one]
Rho kinase 1 (ROCK-I)
  pKi: > 8.52
Rho kinase 2 (ROCK-II)
  pKi: > 8.52

## Cc1c[nH]c2nccc(Oc3ccc(C[C@H](N)C(=O)N4CCC(S(=O)(=O)c5ccccc5)CC4)cc3F)c12 [Example 7, (S)-2-amino-3-(3-fluoro-4-((3-methyl-1H-pyrrolo[2,3-b]pyridin-4-yl)oxy)phenyl)-1-(4-(phenylsulfonyl)piperidin-1-yl)propan-1-one]
Rho kinase 1 (ROCK-I)
  pKi: > 8.52
Rho kinase 2 (ROCK-II)
  pKi: > 8.52

## Cc1c[nH]c2nccc(Oc3ccc(C[C@H](N)C(=O)N4CCN5CCOCC5C4)cc3F)c12 (stereo partly drawn) [Example 16, (2S)-2-amino-3-(3-fluoro-4-((3-methyl-1H-pyrrolo[2,3-b]pyridin-4-yl)oxy)phenyl)-1-(hexahydropyrazino[2,1-c][1,4]oxazin-8(1H)-yl)propan-1-one]
Rho kinase 1 (ROCK-I)
  pKi: > 8.52
Rho kinase 2 (ROCK-II)
  pKi: > 8.52

## Cc1c[nH]c2nccc(Oc3ccc(CC(N)C(=O)N4Cc5ccncc5C4)cc3F)c12 (centres unmarked) [Example 65, 2-amino-3-(3-fluoro-4-((3-methyl-1H-pyrrolo[2,3-b]pyridin-4-yl)oxy)phenyl)-1-(1H-pyrrolo[3,4-c]pyridin-2(3H)-yl)propan-1-one]
Rho kinase 1 (ROCK-I)
  pKi: > 8.52
Rho kinase 2 (ROCK-II)
  pKi: > 8.52

## Cc1c[nH]c2nccc(Oc3ccc(CC(N)C(=O)N4CCN(Cc5ccccc5)CC4)cc3F)c12 (single isomer, unassigned) [Example 132A, 2-amino-1-(4-benzylpiperazin-1-yl)-3-(3-fluoro-4-((3-methyl-1H-pyrrolo[2,3-b]pyridin-4-yl)oxy)phenyl)propan-1-one]
Rho kinase 1 (ROCK-I)
  pKi: > 8.52
Rho kinase 2 (ROCK-II)
  pKi: > 8.52

## O=C(NC(Cc1ccc(Oc2ccnc3[nH]ccc23)cc1)C(=O)NC1CCCCC1)C1CCNC1 (centres unmarked) [Example 180, N-(3-(4-((1H-pyrrolo[2,3-b]pyridin-4-yl)oxy)phenyl)-1-(cyclohexylamino)-1-oxopropan-2-yl)pyrrolidine-3-carboxamide]
Rho kinase 1 (ROCK-I)
  pKi: 7.52 to 8.52
Rho kinase 2 (ROCK-II)
  pKi: 7.52 to 8.52

## N[C@@H](Cc1ccc(Oc2ccnc3[nH]cc(Br)c23)cc1)C(=O)NC1CCOCC1 [Example 189, (S)-2-amino-3-(4-((3-bromo-1H-pyrrolo[2,3-b]pyridin-4-yl)oxy)phenyl)-N-(tetrahydro-2H-pyran-4-yl)propanamide]
Rho kinase 1 (ROCK-I)
  pKi: > 8.52
Rho kinase 2 (ROCK-II)
  pKi: > 8.52

## Cc1c[nH]c2nccc(Oc3ccc(C[C@H](N)C(=O)N(C)C4CCCCC4)cc3)c12 [Example 134, (S)-2-amino-N-cyclohexyl-N-methyl-3-(4-((3-methyl-1H-pyrrolo[2,3-b]pyridin-4-yl)oxy)phenyl)propanamide]
Rho kinase 1 (ROCK-I)
  pKi: > 8.52
Rho kinase 2 (ROCK-II)
  pKi: > 8.52

## Cc1c[nH]c2nccc(Oc3ccc(C[C@H](N)C(=O)N4C[C@@H](C)N(C)[C@@H](C)C4)cc3F)c12 [Example 17, (S)-2-amino-3-(3-fluoro-4-((3-methyl-1H-pyrrolo[2,3-b]pyridin-4-yl)oxy)phenyl)-1-((3S,5R)-3,4,5-trimethylpiperazin-1-yl)propan-1-one]
Rho kinase 1 (ROCK-I)
  pKi: > 8.52
Rho kinase 2 (ROCK-II)
  pKi: > 8.52

## N[C@@H](Cc1ccc(Oc2ccnc3[nH]cc(Br)c23)c(F)c1)C(=O)NC1CCCCC1 [Example 186, (S)-2-amino-3-(4-((3-bromo-1H-pyrrolo[2,3-b]pyridin-4-yl)oxy)-3-fluorophenyl)-N-cyclohexylpropanamide]
Rho kinase 1 (ROCK-I)
  pKi: > 8.52
Rho kinase 2 (ROCK-II)
  pKi: > 8.52

## Cc1c[nH]c2nccc(Oc3ccc(C[C@H](N)C(=O)N4CCN(C)C(c5ccccc5)C4)cc3F)c12 (mixture of isomers) [Example 6, (2S)-2-amino-3-(3-fluoro-4-((3-methyl-1H-pyrrolo[2,3-b]pyridin-4-yl)oxy)phenyl)-1-(4-methyl-3-phenylpiperazin-1-yl)propan-1-one]
Rho kinase 1 (ROCK-I)
  pKi: > 8.52
Rho kinase 2 (ROCK-II)
  pKi: > 8.52

## N[C@@H](Cc1ccc(Oc2ccnc3[nH]cc(Br)c23)cc1)C(=O)NC1CCCCC1 [Example 188, (S)-2-amino-3-(4-((3-bromo-1H-pyrrolo[2,3-b]pyridin-4-yl)oxy)phenyl)-N-cyclohexylpropanamide]
Rho kinase 1 (ROCK-I)
  pKi: > 8.52
Rho kinase 2 (ROCK-II)
  pKi: > 8.52

## Cc1c[nH]c2nccc(Oc3ccc(C[C@H](N)C(=O)NC4CCOCC4)cc3F)c12 [Example 54, (S)-2-amino-3-(3-fluoro-4-((3-methyl-1H-pyrrolo[2,3-b]pyridin-4-yl)oxy)phenyl)-N-(tetrahydro-2H-pyran-4-yl)propanamide]
Rho kinase 1 (ROCK-I)
  pKi: > 8.52
Rho kinase 2 (ROCK-II)
  pKi: > 8.52

## CN(C)CCCNC(=O)[C@@H](N)Cc1ccc(Oc2ccnc3[nH]cc(CO)c23)c(F)c1 [Example 212, (S)-2-amino-N-(3-(dimethylamino)-propyl)-3-(3-fluoro-4-((3-(hydroxymethyl)-1H-pyrrolo[2,3-b]pyridin-4-yl)oxy)phenyl)propanamide]
Rho kinase 1 (ROCK-I)
  pKi: 7.52 to 8.52
Rho kinase 2 (ROCK-II)
  pKi: 7.52 to 8.52

## Cc1c[nH]c2nccc(Oc3ccc(CC(N)C(=O)N4CCn5cncc5C4)cc3F)c12 (centres unmarked) [Example 81, 2-amino-1-(5,6-dihydroimidazo[1,5-a]pyrazin-7(8H)-yl)-3-(3-fluoro-4-((3-methyl-1H-pyrrolo[2,3-b]pyridin-4-yl)oxy)phenyl)propan-1-one]
Rho kinase 1 (ROCK-I)
  pKi: > 8.52
Rho kinase 2 (ROCK-II)
  pKi: > 8.52

## Cc1c[nH]c2nccc(Oc3ccc(C[C@H](N)C(=O)NC4CCCCC4)cc3F)c12 [Example 20, (S)-2-amino-N-cyclohexyl-3-(3-fluoro-4-((3-methyl-1H-pyrrolo[2,3-b]pyridin-4-yl)oxy)phenyl)propanamide]
Rho kinase 1 (ROCK-I)
  pKi: > 8.52
Rho kinase 2 (ROCK-II)
  pKi: > 8.52

## Cc1c[nH]c2nccc(Oc3ccc(C[C@@H](N)C(=O)NC4CCCCC4)cc3)c12 [Example 142, (R)-2-amino-N-cyclohexyl-3-(4-((3-methyl-1H-pyrrolo[2,3-b]pyridin-4-yl)oxy)phenyl)propanamide]
Rho kinase 1 (ROCK-I)
  pKi: 7.52 to 8.52
Rho kinase 2 (ROCK-II)
  pKi: 7.52 to 8.52

## Cc1c[nH]c2nccc(Oc3ccc(CC(N)C(=O)N4CCCC4c4ccccc4)cc3F)c12 (single isomer, unassigned) [Example 84, 2-amino-3-(3-fluoro-4-((3-methyl-1H-pyrrolo[2,3-b]pyridin-4-yl)oxy)phenyl)-1-(2-phenylpyrrolidin-1-yl)propan-1-one]
Rho kinase 1 (ROCK-I)
  pKi: 7.52 to 8.52
Rho kinase 2 (ROCK-II)
  pKi: 7.52 to 8.52

## Cc1c[nH]c2nccc(Oc3ccc(CC(N)C(=O)N4CCCC4c4ccccc4)cc3F)c12 (single isomer, unassigned) [Example 85, 2-amino-3-(3-fluoro-4-((3-methyl-1H-pyrrolo[2,3-b]pyridin-4-yl)oxy)phenyl)-1-(2-phenylpyrrolidin-1-yl)propan-1-one]
Rho kinase 1 (ROCK-I)
  pKi: 7.52 to 8.52
Rho kinase 2 (ROCK-II)
  pKi: 7.52 to 8.52

## CN(C)C(Cc1ccc(Oc2ccnc3[nH]ccc23)cc1)C(=O)NC1CCOCC1 (centres unmarked) [Example 182, 3-(4-((1H-pyrrolo[2,3-b]pyridin-4-yl)oxy)phenyl)-2-(dimethylamino)-N-(tetrahydro-2H-pyran-4-yl)propanamide]
Rho kinase 1 (ROCK-I)
  pKi: < 7.52
Rho kinase 2 (ROCK-II)
  pKi: < 7.52

Reference: US10501461B2, “Tyrosine amide derivatives as Rho-kinase inhibitors” (CHIESI FARMACEUTICI S.P.A., priority 2017, dated 2019)
